Our source for the Kd and EC50 values is patent US10947252B2, “Inhibitors of KEAP1-Nrf2 protein-protein interaction” (Janssen Pharmaceutica NV, priority 2018, dated 2021).

In general, Kd refers to a measure of binding affinity in units of concentration. As a reminder, the EC50 is the concentration at which the effect is half-maximal. Low readings indicate a more potent agent, high ones a less potent agent.

In assay [1] the target is Kelch domain of human KEAP1 (321-624 aa) (Homo sapiens (Human), UniProt Q14145). In words: KEAP1 KELCH ThermoFluor binding assay.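 Note: Ligand-induced melting temperature shift of E. coli-expressed KEAP1 Kelch protein, Kd estimated from concentration-response curves of ΔTm.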 Particulars: KEAP Kelch […], 1,8-ANS, pH 7.0, average of results obtained, read-out: Tf Kd. (DSF heats the sample and reads unfolding from a dye or from intrinsic fluorescence.)
Assay [2] deals with Glo-Response ARE-luc2P HEK293 cell line. Put plainly: ARE luciferase reporter cell-based assay.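 Note: luciferase signal tracks Nrf2 activation of the ARE once compounds disrupt KEAP1-Nrf2 binding, read with One-Glo reagent, DMSO serving as low control.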 Particulars: Homo sapiens, HEK293, 24 h, average of results obtained.

Sequence of Kelch domain of human KEAP1 (321-624 aa) (Q14145 321-624): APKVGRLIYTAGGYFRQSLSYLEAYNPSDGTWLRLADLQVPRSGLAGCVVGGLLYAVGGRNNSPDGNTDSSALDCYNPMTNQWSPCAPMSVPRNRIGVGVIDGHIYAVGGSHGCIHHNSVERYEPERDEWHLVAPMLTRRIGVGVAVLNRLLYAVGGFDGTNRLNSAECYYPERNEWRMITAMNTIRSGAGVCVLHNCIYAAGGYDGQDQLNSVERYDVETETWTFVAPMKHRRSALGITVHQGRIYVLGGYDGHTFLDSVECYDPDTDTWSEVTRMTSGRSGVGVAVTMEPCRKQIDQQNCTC

Consider `Cc1ncc([C@@H](c2ccn3c(C(F)(F)F)nnc3c2C)C(C)(C)C(=O)O)cc1CN1CC2(CCOCC2)Oc2ncccc2S1(=O)=O` (single isomer, unassigned) [Example 571, (*R)-3-(5-((1′,1′-dioxido-2,3,5,6-tetrahydrospiro[pyran-4,4′-pyrido[2,3-b][1,4,5]oxathiazepin]-2′(3′H)-yl)methyl)-6-methylpyridin-3-yl)-2,2-dimethyl-3-(8-methyl-3-(trifluoromethyl)-[1,2,4]triazolo[4,3-a]pyridin-7-yl)propanoic Acid], for which the Kd in assay [1] amounted to 5850 nM. In addition, in assay [2], the EC50 is more than 20000 nM.
Taken in the same sequence, the figures for `Cc1cnc2c(c1)S(=O)(=O)N(Cc1cc(C(CC(=O)O)c3ccn4c(C(F)F)nnc4c3C)ccc1C)C[C@@H]1CCCCN21` (stereo in doubt) [Example 499, 3-(3-(Difluoromethyl)-8-methyl-[1,2,4]triazolo[4,3-a]pyridin-7-yl)-3-(4-methyl-3-(((*S)-3-methyl-5,5-dioxido-7,7a,8,9,10,11-hexahydro-6H-dipyrido[2,1-d:2′,3′-f][1,2,5]thiadiazepin-6-yl)methyl)phenyl)propanoic Acid] were less than 1 nM and 12.8 nM.
`Cc1cc2cc(C(CC(=O)O)c3ccc(C)c(CN4C[C@H]5CCCN5c5ncccc5S4(=O)=O)c3)n(C)c2nn1` (mixture of isomers) [Example 434, 3-(3,7-Dimethyl-7H-pyrrolo[2,3-c]pyridazin-6-yl)-3-(3-(((R)-5,5-dioxido-7a,8,9,10-tetrahydropyrido[2,3-f]pyrrolo[2,1-d][1,2,5]thiadiazepin-6(7H)-yl)methyl)-4-methylphenyl)propanoic Acid]: the equilibrium dissociation constant (Kd) in assay [1] was 1.51 nM. In addition, in assay [2], the EC50 is 3870 nM.
Taken in the same sequence, the figures for `Cc1ccc([C@H](CC(=O)O)c2ccn3c(C(F)(F)F)nnc3c2C)nc1CN1C[C@@H]2CCCCN2c2ncc(C#N)cc2S1(=O)=O` (single isomer, unassigned) [Example 37, (*R)-3-(6-(((*S)-3-Cyano-5,5-dioxido-7,7a,8,9,10,11-hexahydro-6H-dipyrido[2,1-d:2′,3′-f][1,2,5]thiadiazepin-6-yl)methyl)-5-methylpyridin-2-yl)-3-(8-methyl-3-(trifluoromethyl)-[1,2,4]triazolo[4,3-a]pyridin-7-yl)propanoic Acid] were less than 1 nM and 25.7 nM.
Regarding `Cc1ccc(C(CC(=O)O)c2ccn3c(C(F)F)nnc3c2C)cc1CN1CC2(CC2)Oc2ncc(C(N)=O)cc2S1(=O)=O` (stereo not drawn) [Example 551, 3-(3-((8′-Carbamoyl-1′,1′-dioxidospiro[cyclopropane-1,4′-pyrido[2,3-b][1,4,5]oxathiazepin]-2′(3′H)-yl)methyl)-4-methylphenyl)-3-(3-(difluoromethyl)-8-methyl-[1,2,4]triazolo[4,3-a]pyridin-7-yl)propanoic Acid], the dissociation constant (Kd) in assay [1] amounted to 453 nM. The EC50 in assay [2] is more than 20000 nM.
For `Cc1cnc2c(c1)S(=O)(=O)N(Cc1nc([C@H](c3ccn4c(C(F)F)nnc4c3C)C(C)(C)C(=O)O)ccc1C)CC1(CNC1)O2` (single isomer, unassigned) [Example 631, (*R)-3-(3-(Difluoromethyl)-8-methyl-[1,2,4]triazolo[4,3-a]pyridin-7-yl)-2,2-dimethyl-3-(5-methyl-6-((8′-methyl-1′,1′-dioxidospiro[azetidine-3,4′-pyrido[2,3-b][1,4,5]oxathiazepin]-2′(3′H)-yl)methyl)pyridin-2-yl)propanoic Acid], in that order: 1.08 nM and 76.8 nM.
Taken in the same sequence, the figures for `CC[C@@H]1CN(Cc2cc(C(CC(=O)O)c3ccn4c(C(F)(F)F)nnc4c3C)ccc2C)S(=O)(=O)c2cccnc2O1` (mixture of isomers) [Example 188, (R/S)-3-(3-(((R)-4-ethyl-1,1-dioxido-3,4-dihydro-2H-pyrido[2,3-b][1,4,5]oxathiazepin-2-yl)methyl)-4-methylphenyl)-3-(8-methyl-3-(trifluoromethyl)-[1,2,4]triazolo[4,3-a]pyridin-7-yl)propanoic acid] were less than 1 nM and 17 nM.
Take `Cc1ccc([C@H](CC(=O)O)c2ccn3c(C(F)(F)F)nnc3c2C)cc1CN1C[C@H]2CN(C)CCN2c2ncccc2S1(=O)=O` (single isomer, unassigned) [Example 181, (*S)-3-(4-Methyl-3-(((*R)-9-methyl-5,5-dioxido-7,7a,8,9,10,11-hexahydro-6H-pyrazino[2,1-d]pyrido[2,3-f][1,2,5]thiadiazepin-6-yl)methyl)phenyl)-3-(8-methyl-3-(trifluoromethyl)-[1,2,4]triazolo[4,3-a]pyridin-7-yl)propanoic Acid]: in assay [1], the equilibrium dissociation constant (Kd) was determined as 110 nM. Besides, the EC50 in assay [2] stood at 1110 nM.
Taken in the same sequence, the figures for `Cc1ccc([C@@H](CC(=O)O)c2cc(OC(F)F)c3c(c2)nnn3C)cc1CN1C[C@H]2CCCN2c2ncccc2S1(=O)=O` (single isomer, unassigned) [Example 248, (*R)-3-(7-(Difluoromethoxy)-1-methyl-1H-benzo[d][1,2,3]triazol-5-yl)-3-(3-(((R)-5,5-dioxido-7a,8,9,10-tetrahydropyrido[2,3-f]pyrrolo[2,1-d][1,2,5]thiadiazepin-6(7H)-yl)methyl)-4-methylphenyl)propanoic Acid] were less than 1 nM and 48.6 nM.
For `Cc1ccc(C(CC(=O)O)c2ccn3c(C(F)F)nnc3c2C)cc1CN1CC2(CC2)Oc2ncc(Cl)cc2S1(=O)=O` (stereo not drawn) [Example 529, 3-(3-((8′-Chloro-1′,1′-dioxidospiro[cyclopropane-1,4′-pyrido[2,3-b][1,4,5]oxathiazepin]-2′(3′H)-yl)methyl)-4-methylphenyl)-3-(3-(difluoromethyl)-8-methyl-[1,2,4]triazolo[4,3-a]pyridin-7-yl)propanoic Acid], in that order: less than 1 nM and 29.1 nM.
Turning to `Cc1ccc([C@H](c2ccn3c(C(F)F)nnc3c2C)C(C)(C)C(=O)O)cc1CN1CC2(CCOCC2)Oc2nc(OCCN3CCOCC3)ccc2S1(=O)=O` (single isomer, unassigned) [Example 580, (*R)-3-(3-(Difluoromethyl)-8-methyl-[1,2,4]triazolo[4,3-a]pyridin-7-yl)-2,2-dimethyl-3-(4-methyl-3-((7′-(2-morpholinoethoxy)-1′,1′-dioxido-2,3,5,6-tetrahydrospiro[pyran-4,4′-pyrido[2,3-b][1,4,5]oxathiazepin]-2′(3′H)-yl)methyl)phenyl)propanoic Acid], the Kd in assay [1] stood at 1640 nM. In assay [2], it took 3240 nM to reach a half-maximal effect (EC50).
For `Cc1ccc([C@H](c2ccn3c(C(F)F)nnc3c2C)C(C)(C)C(=O)O)nc1CN1CC2(CCOCC2)Oc2nc(OCCN3CCCC3)c(C)cc2S1(=O)=O` (single isomer, unassigned) [Example 643, (*R)-3-(3-(Difluoromethyl)-8-methyl-[1,2,4]triazolo[4,3-a]pyridin-7-yl)-2,2-dimethyl-3-(5-methyl-6-((8′-methyl-1′,1′-dioxido-7′-(2-(pyrrolidin-1-yl)ethoxy)-2,3,5,6-tetrahydrospiro[pyran-4,4′-pyrido[2,3-b][1,4,5]oxathiazepin]-2′(3′H)-yl)methyl)pyridin-2-yl)propanoic Acid], the Kd in assay [1] turned out to be 2420 nM. This compound also had an EC50 in assay [2] of 9780 nM.
